Test results published in US20260297031A1, “HYDROXYLAMINE-BASED BCR-ABL1 INHIBITORS FOR TREATMENT OF CANCER” (University of Georgia Research Foundation, Inc., priority 2023, published 2026).
Values after ≈ are worked out from the molar mass of the structure shown.

What was measured:
[1] = Caco-2 permeability; conditions: human
Procedure: Caco-2 Permeability (Independently Performed by Pharmaron Inc., Ningbo, CN)
To each well of the Transwell insert and reservoir were added 50 μL and 25 mL of cell culture medium, respectively. […] Following this, the Caco-2 plate was removed from the incubator and the monolayer washed twice with pre-warmed HBSS (10 mM HEPES, pH 7.4).
To determine the rate of drug transport in the apical to basolateral direction, 125 μL of the working solution of either test compounds or control compounds was added to the Transwell insert (apical compartment) and a 50 μL sample was immediately transported from the apical compartment to 200 μL of acetonitrile containing internal standard (100 nM alprazolam, 200 nM Caffeine and 100 nM tolbutamide) in a new 96-well plate as the initial donor sample (A-B). The sample was then vortexed at 1,000 rpm for 10 min. The receiver plate (basolateral compartment) wells were then filled with 235 μL of transport buffer. To determine the rate of drug transport in the basolateral to apical direction, 285 μL of the working solution of either test compounds or control compounds was added to the receiver plate wells (basolateral compartment) and a 50 μL sample was immediately transferred from the basolateral compartment to 200 μL of acetonitrile containing internal standard in a new 96-well plate as the initial donor sample (B-A). The sample was vortexed at 1,000 rpm for 10 min. The Transwell insert (apical compartment) was then filled with 75 μL of transport buffer and the apical to basolateral direction and the basolateral to apical direction were done at the same time. […] After incubation, 50 μL samples from donor sides (apical compartment for Ap→BI flux, and basolateral compartment for BI→Ap) and receiver sides (basolateral compartment for Ap→BI flux, and apical compartment for BI→Ap) were transferred to wells of a new 96-well plate, followed by the addition of 200 μL acetonitrile containing internal standard. All samples were vortexed for 10 min and then centrifuged at 3,220 g for 40 min. A 150 μL aliquot of the supernatant was then mixed with an appropriate volume of ultra-pure water prior to LC-MS/MS analysis.
To monitor for monolayer integrity, Lucifer yellow leakage was determined after the 2 h transport period. This began by preparing a stock solution of Lucifer yellow in DMSO which was diluted with HBSS (10 mM HEPES, pH 7.4.) to reach a final concentration of 100 μM. To each Transwell insert (apical compartment) was then added 100 μL of the Lucifer yellow solution, followed by filling the wells in the receiver plate (basolateral compartment) with 300 μL of HBSS (10 mM HEPES, pH 7.4).
The efflux ratio was determined using the following equation: […]

[2] = target: T1, BCR-ABL1 Q252H (Homo sapiens, UniProt P00519, Q252H); assay: KinaseProfiler radiometric kinase assay, BCR-ABL1 Q252H; assay type: biochemical; conditions: [ATP] = 10 μM; mean of n = 2
T1 construct: BCR (fusion partner, as the printed name BCR-ABL1 says)

[3] = target: T2, BCR-ABL1 M351T (Homo sapiens, UniProt P00519, M351T); assay: KinaseProfiler radiometric kinase assay, BCR-ABL1 M351T; assay type: biochemical; conditions: [ATP] = 10 μM; mean of n = 2
T2 construct: BCR (fusion partner, as the printed name BCR-ABL1 says)

[4] = Plasma protein binding by equilibrium dialysis, rat plasma; assay type: in vitro ADME; conditions: plasma, 5 μM, read-out: fu, plasma %
Procedure: (§1) Plasma Protein Binding by Equilibrium Dialysis (Independently Performed by Pharmaron Inc., Ninqbo, CN)
(§2) Initially, 1 mM solutions of test compounds and the control compound (Ketoconzaole) were prepared in DMSO. After this, dialysis membranes were soaked in ultrapure water for 60 min to separate strips, followed by 20% aq. ethanol for 20 min, and finally in a dialysis buffer for 20 min. […] After this, 597 μL of blank plasma solution followed by 3 μL of the working solutions of either test compounds or control compound were added to a new plastic plate or separate plastic tube and the solutions were vortexed at 1,000 rpm for 2 min. Immediately after this, 50 μL of spiked plasma solution suspension was transferred to a 96-well plate to act as T=0 control. The remaining samples were treated in the same manner, whereby all remaining spiked plasma solutions were added to the incubator for the duration of the study.
Cells were then loaded with 120 μL of the plasma samples and dialyzed against an equal volume of dialysis buffer (PBS). […] At the end of incubation, the lid was removed and 50 μL of post-dialysis samples were removed from both buffer and plasma solution chambers into a separate 96-well plate for analysis. The plasma solutions (50 μL) were then added to the buffer samples along with an equal volume of PBS (50 μL) to the collected plasma solution samples. The plate was shaken at 1,000 rpm for 2 min and 400 μL of acetonitrile containing an appropriate internal standard was added to precipitate protein and release compound. The samples were then vortexed at 1,000 rpm for an additional 10 min followed by centrifugation at 3,220 g for 30 min. […] The samples were analyzed by LC-MS/MS and 100 μL of distilled water was added to each sample prior to analysis.
(§3) Concentrations of test compounds and control compound in buffer and plasma solution chambers was determined and percentages of test compounds and control compound bound using the following equations (mean of n=2 replicates): […]

[5] = tested on: mutant BCR-ABL1; assay: KinaseProfiler radiometric kinase assay, mutant BCR-ABL1 kinases as a group; assay type: biochemical, human; conditions: for IC50: read-out: IC50 against (imatinib resistant / relevant) mutant BCR-ABL1 kinases, group of mutants
Text: Biochemical Human RTK Kinase Enzymatic Radiometric Assay, KinaseProfiler (Independently Performed by Eurofins Cerep SA, FR)

[6] = Plasma protein binding by equilibrium dialysis, human plasma; assay type: in vitro ADME; conditions: for % Unbound: human plasma, 360 min, 5 µM
Procedure: as §1, §2
Cells were then loaded with 120 μL of the plasma samples and dialyzed against an equal volume of dialysis buffer (PBS). […] At the end of incubation, the lid was removed and 50 μL of post-dialysis samples were removed from both buffer and plasma solution chambers into a separate 96-well plate for analysis. The plasma solutions (50 μL) were then added to the buffer samples along with an equal volume of PBS (50 μL) to the collected plasma solution samples. The plate was shaken at 1,000 rpm for 2 min and 400 μL of acetonitrile containing an appropriate internal standard was added to precipitate protein and release compound. The samples were then vortexed at 1,000 rpm for an additional 10 min followed by centrifugation at 3,220 g for 30 min. Supernatant (250 μL) was then added to a new 96-well plate and centrifuged again at 3,220 g for 30 min and 100 μL of this supernatant was then added to a new 96-well plate for analysis. The samples were analyzed by LC-MS/MS and 100 μL of distilled water was added to each sample prior to analysis.
as §3

[7] = target: T3, BCR-ABL1 wt (Homo sapiens, UniProt P00519); assay: KinaseProfiler radiometric kinase assay, BCR-ABL1 wt; assay type: biochemical; conditions: [ATP] = 10 μM; mean of n = 2
T3 construct: called BCR-ABL1 in the text

[8] = Aqueous solubility
Procedure: Solubility Determinations (Independently Performed by Pharmaron Inc., Ninqbo, CN)
Test compounds and control compounds (progesterone or diclofenac) were initially prepared as 10 mM DMSO stock solutions. […] After such time, plugs and stir sticks were removed and the samples from the solubility sample plate were transferred into the filter plate. All the samples were then filtered and 5 μL of filtrate was taken and added along with 5 μL of DMSO and 490 μL of a 1:1 (v/v) mixture of H2O and acetonitrile containing internal standard (100 nM alprazolam, 200 nM Caffeine and 100 nM tolbutamide) to the plate yielding a final concentration of 3 μM. The samples were then analyzed by LC-MS and diluted according to the peak shape with ultrapure water.
Filtrate was analyzed and quantified against a standard of known concentration using LC coupled with MS peak identification and quantitation. Solubility values of test compounds and progesterone were calculated as follows and are presented as the mean of n=2 replicates: […]

[9] = Plasma protein binding by equilibrium dialysis, mouse plasma; assay type: in vitro ADME, mouse (CD-1); conditions: 360 min, 5 µM
Procedure: as §1, §2
Cells were then loaded with 120 μL of the plasma samples and dialyzed against an equal volume of dialysis buffer (PBS). […] The samples were analyzed by LC-MS/MS and 100 μL of distilled water was added to each sample prior to analysis.
as §3

[10] = target: hERG channel (Homo sapiens, UniProt Q12809); assay: hERG safety evaluation by manual patch-clamp system
Sequence of hERG channel (Q12809 whole entry): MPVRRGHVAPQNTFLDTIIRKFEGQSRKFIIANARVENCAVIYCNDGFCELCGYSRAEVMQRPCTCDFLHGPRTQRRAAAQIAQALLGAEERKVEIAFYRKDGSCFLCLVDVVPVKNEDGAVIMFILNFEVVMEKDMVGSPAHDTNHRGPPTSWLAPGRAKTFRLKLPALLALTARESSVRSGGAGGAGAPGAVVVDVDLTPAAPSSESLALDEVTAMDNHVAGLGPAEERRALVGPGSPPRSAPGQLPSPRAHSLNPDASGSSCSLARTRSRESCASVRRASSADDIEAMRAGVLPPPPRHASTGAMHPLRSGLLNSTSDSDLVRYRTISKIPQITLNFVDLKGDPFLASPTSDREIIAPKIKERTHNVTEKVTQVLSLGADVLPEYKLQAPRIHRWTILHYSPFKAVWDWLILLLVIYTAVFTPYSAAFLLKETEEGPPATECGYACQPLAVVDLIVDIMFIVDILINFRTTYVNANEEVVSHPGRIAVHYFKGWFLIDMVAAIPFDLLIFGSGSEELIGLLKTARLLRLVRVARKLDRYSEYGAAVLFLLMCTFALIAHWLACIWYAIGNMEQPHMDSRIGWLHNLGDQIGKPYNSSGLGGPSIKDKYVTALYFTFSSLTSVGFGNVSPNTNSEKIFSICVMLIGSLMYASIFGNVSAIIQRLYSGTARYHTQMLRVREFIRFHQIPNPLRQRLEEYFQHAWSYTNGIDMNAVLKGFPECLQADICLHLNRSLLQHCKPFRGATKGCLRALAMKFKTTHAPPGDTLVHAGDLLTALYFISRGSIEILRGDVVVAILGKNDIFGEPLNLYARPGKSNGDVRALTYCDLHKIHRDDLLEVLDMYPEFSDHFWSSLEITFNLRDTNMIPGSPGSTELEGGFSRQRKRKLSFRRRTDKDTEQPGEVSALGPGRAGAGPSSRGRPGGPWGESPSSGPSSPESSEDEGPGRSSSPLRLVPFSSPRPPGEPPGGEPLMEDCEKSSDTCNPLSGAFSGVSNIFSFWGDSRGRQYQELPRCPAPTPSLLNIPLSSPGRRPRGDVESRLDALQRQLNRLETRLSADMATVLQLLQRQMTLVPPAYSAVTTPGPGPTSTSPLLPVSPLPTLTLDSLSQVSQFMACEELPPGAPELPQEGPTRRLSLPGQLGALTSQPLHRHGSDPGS

| Compound | Papp A→B at 2 h, 5 µM [1] [×10⁻⁶ cm/s] | IC50 [2] [nM] | IC50 [3] [nM] | fraction unbound at 6 h, 5 µM [4] | BCR-ABL1 kinase activity, in words [5] | IC50 [5] [nM] | % Unbound [6] [%] | fraction unbound at 6 h, 5 µM ([6]; plasma, human, 5 μM, read-out: fu, plasma %) | IC50 [7] [nM] | solubility kinetic at 2 h ([8]; phosphate buffer, pH 7.4, aqueous buffer) [µM] | solubility, in words [8] | % Unbound [9] [%] | hERG liability, in words [10] |
| --- | --- | --- | --- | --- | --- | --- | --- | --- | --- | --- | --- | --- | --- |
| COc1cc(Nc2c(C#N)cnc3cc(OCCON4CCN(C)CC4)c(OC)cc23)c(F)cc1Cl [Compound 15, 4-((4-chloro-2-fluoro-5-methoxyphenyl)amino)-6-methoxy-7-(2-((4-methylpiperazin-1-yl)oxy)ethoxy)quinoline-3-carbonitrile] | 1.9 | 2 | 2 | 0.049 | single-digit nanomolar biochemical activity | < 1 | 5.58 | 0.056 | 1 | 43 (≈ 22.2 µg/mL) | – | – | – |
| COc1cc2c(Nc3cccc(OC)c3Cl)c(C#N)cnc2cc1OCCON1CCN(C)CC1 [Compound 17, 4-((2-Chloro-3-methoxyphenyl)amino)-6-methoxy-7-(2-((4-methylpiperazin-1-yl)oxy)ethoxy)quinoline-3-carbonitrile] | – | 37 | 31 | – | – | ≥ 15 | 7.37 | – | – | – | high aqueous solubility at pH 7.4 | 11.93 | minimal hERG inhibition |
| COc1cc(Cl)ccc1Nc1c(C#N)cnc2cc(OCCON3CCN(C)CC3)c(OC)cc12 [Compound 20, 4-((4-Chloro-2-methoxyphenyl)amino)-6-methoxy-7-(2-((4-methylpiperazin-1-yl)oxy)ethoxy)quinoline-3-carbonitrile] | – | 10 | 13 | – | – | – | 7.73 | – | – | – | – | 9.71 | – |
